Tests used:
[1] = target: T1, KRas-mediated phosphorylation of ERK in A549 cells (Homo sapiens, UniProt P01116, G12S); experiment: Inhibition of KRas-mediated phosphorylation of ERK (HTRF), A549 cells; format: cell-based; details: HTRF pERK, 3 h incubation
T1 construct: pERK HTRF read-out

KRas WT = target: T2, KRas WT (Homo sapiens, UniProt P01116); experiment: KRas binding assay, TR-FRET displacement of Cy5 labelled tracer; details: 60-minute incubation at room temperature, 1% DMSO, pH 7.5
T2 construct: Biotinylated KRas (corresponding to amino acids 1-169, produced at Accelegan Inc.); biotin (biotinylated); purchased Accelegan Inc
T2 sequence (P01116 1-169 isoform P01116-2): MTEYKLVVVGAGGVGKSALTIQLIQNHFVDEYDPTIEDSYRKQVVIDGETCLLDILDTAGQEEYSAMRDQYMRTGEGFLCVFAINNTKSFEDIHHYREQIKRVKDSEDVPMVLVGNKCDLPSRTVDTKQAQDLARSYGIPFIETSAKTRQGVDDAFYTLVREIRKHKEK
Summary of the method: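 Truncated KRas (1-169), biotinylated, Tb-streptavidin donor; one-hour room-temperature incubation; IC50 by four-parameter curve fitting.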

KRas G12C = target: T3, KRas G12C (Homo sapiens, UniProt P01116, G12C); experiment: as above; details: 60-minute incubation at room temperature, 1% DMSO, pH 7.5
T3 construct: Biotinylated KRas (corresponding to amino acids 1-169, produced at Accelegan Inc.); biotin (biotinylated); purchased Accelegan Inc
T3 sequence (P01116 1-169 isoform P01116-2 G12C): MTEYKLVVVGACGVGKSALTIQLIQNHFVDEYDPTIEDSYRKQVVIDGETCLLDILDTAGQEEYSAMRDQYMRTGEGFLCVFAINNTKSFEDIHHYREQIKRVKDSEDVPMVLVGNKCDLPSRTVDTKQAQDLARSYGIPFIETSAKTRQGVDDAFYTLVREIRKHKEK
Summary of the method: (§1)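 Assay buffer was HEPES (50 mM, pH 7.5) with MgCl2 (5 mM), DTT (1 mM) and Tween-20 (0.005%). Biotinylated KRas spanning residues 1-169 met tracer, terbium streptavidin and compound (1% DMSO, final) for 60 minutes at ambient temperature before reading. POC values were fitted for IC50.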

KRas G12S = target: T4, KRas G12S (Homo sapiens, UniProt P01116, G12S); experiment: as above; details: 60-minute incubation at room temperature, 1% DMSO, pH 7.5
T4 construct: Biotinylated KRas (corresponding to amino acids 1-169, produced at Accelegan Inc.); biotin (biotinylated); purchased Accelegan Inc
T4 sequence (P01116 1-169 isoform P01116-2 G12S): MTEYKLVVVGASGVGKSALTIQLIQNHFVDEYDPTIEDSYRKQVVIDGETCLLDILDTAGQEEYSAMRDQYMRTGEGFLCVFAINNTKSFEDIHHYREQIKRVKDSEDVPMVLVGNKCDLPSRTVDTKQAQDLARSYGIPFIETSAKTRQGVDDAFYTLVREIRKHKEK
Summary of the method: as §1

[2] = target: T5, KRas-mediated phosphorylation of ERK in MKN1 cells (Homo sapiens, UniProt P01116); experiment: Inhibition of KRas-mediated phosphorylation of ERK (HTRF), MKN1 cells; format: cell-based; details: MKN1 cells (KRas WT); HTRF pERK; 3 h incubation
T5 construct: pERK HTRF read-out
T5 sequence (P01116 1-188 isoform P01116-2): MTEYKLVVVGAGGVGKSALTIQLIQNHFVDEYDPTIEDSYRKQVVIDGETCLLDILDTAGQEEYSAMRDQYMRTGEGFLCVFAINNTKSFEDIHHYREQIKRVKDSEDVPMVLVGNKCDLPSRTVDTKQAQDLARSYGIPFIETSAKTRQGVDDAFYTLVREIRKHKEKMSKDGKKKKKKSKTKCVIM
Description: Inhibition of KRas Phosphorylation of ERK (HTRF) by Exemplary Compounds of Formula (Ia) or (Ib)
Cisbio HTRF Advanced pERK Assay Catalog #64AERPEH • Cells: MKN1, PSN1 • Procedure: • 1. Day 1: Seed 6,000 cells/well −25 μl/well in 384-well white solid bottom plate; RPM1_10% FBS. Incubate overnight at 37 °C/5% CO2. • 2.

[3] = target: T6, KRas-mediated phosphorylation of ERK in H358 cells (Homo sapiens, UniProt P01116, G12C); experiment: Inhibition of KRas-mediated phosphorylation of ERK (HTRF), H358 cells; format: cell-based; details: HTRF pERK, 3 h incubation
T6 construct: pERK HTRF read-out
T6 sequence (P01116 1-188 isoform P01116-2 G12C): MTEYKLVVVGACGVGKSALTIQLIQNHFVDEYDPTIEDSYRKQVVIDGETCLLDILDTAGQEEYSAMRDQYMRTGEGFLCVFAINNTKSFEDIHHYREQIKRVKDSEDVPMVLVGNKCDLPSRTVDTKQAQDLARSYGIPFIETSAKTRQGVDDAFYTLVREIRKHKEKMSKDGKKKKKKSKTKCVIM

T1 sequence (P01116 1-188 isoform P01116-2 G12S): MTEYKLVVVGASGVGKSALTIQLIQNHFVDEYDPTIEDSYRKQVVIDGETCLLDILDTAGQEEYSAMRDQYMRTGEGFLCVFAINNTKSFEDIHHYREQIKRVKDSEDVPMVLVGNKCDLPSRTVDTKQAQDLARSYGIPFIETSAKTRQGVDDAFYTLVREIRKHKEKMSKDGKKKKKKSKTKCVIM

Structure (SMILES) | IC50 [1] [nM] | IC50 (KRas WT) [nM] | IC50 (KRas G12C) [nM] | IC50 (KRas G12S) [nM] | IC50 [2] [nM] | IC50 [3] [nM]
CCc1c(F)ccc2cc(O)cc(-c3ncc4c(N(C)CCNC(=O)n5ccnn5)nc(OC[C@@]56CCCN5C[C@H](F)C6)nc4c3F)c12 [Example 250, N-(2-((7-(8-ethyl-7-fluoro-3-hydroxynaphthalen-1-yl)-8-fluoro-2-(((2R,7aS)-2-fluorotetrahydro-1H-pyrrolizin-7a(5H)-yl)methoxy)pyrido[4,3-d]pyrimidin-4-yl)(methyl)amino)ethyl)-1H-1,2,3-triazole-1-carboxamide] | 1680 | 37 | < 2 | 34 | 357 | 8
CCc1c(F)ccc2cc(O)cc(-c3ncc4c(N(C)CCNC(=O)n5nccn5)nc(OC[C@@]56CCCN5C[C@H](F)C6)nc4c3F)c12 [Example 251, N-(2-((7-(8-ethyl-7-fluoro-3-hydroxynaphthalen-1-yl)-8-fluoro-2-(((2R,7aS)-2-fluorotetrahydro-1H-pyrrolizin-7a(5H)-yl)methoxy)pyrido[4,3-d]pyrimidin-4-yl)(methyl)amino)ethyl)-2H-1,2,3-triazole-2-carboxamide] | 5440 | 70 | 21 | 65 | 1280 | 66
CCc1c(F)ccc2cc(O)cc(-c3ncc4c(N5CCC(C(=O)N(C)S(C)(=O)=O)CC5)nc(OC[C@@]56CCCN5C[C@H](F)C6)nc4c3F)c12 [Example 257, 1-(7-(8-ethyl-7-fluoro-3-hydroxynaphthalen-1-yl)-8-fluoro-2-(((2R,7aS)-2-fluorotetrahydro-1H-pyrrolizin-7a(5H)-yl)methoxy)pyrido[4,3-d]pyrimidin-4-yl)-N-methyl-N-(methylsulfonyl)piperidine-4-carboxamide] | 677 | 214 | 5 | 499 | 726 | 21
CCc1c(F)ccc2cc(O)cc(-c3ncc4c(NCCCC(=O)N(C)C(C)=O)nc(OC[C@@]56CCCN5C[C@H](F)C6)nc4c3F)c12 [Example 261, N-acetyl-4-((7-(8-ethyl-7-fluoro-3-hydroxynaphthalen-1-yl)-8-fluoro-2-(((2R,7aS)-2-fluorotetrahydro-1H-pyrrolizin-7a(5H)-yl)methoxy)pyrido[4,3-d]pyrimidin-4-yl)amino)-N-methylbutanamide] | 67 | 23 | 14 | 15 | 159 | 159
Cc1ccn(C(=O)CCCCNc2nc(OC[C@@]34CCCN3C[C@H](F)C4)nc3c(F)c(-c4ccc(F)c5sc(N)c(C#N)c45)c(Cl)cc23)n1 [Example 262, 2-amino-4-(6-chloro-8-fluoro-2-(((2R,7aS)-2-fluorotetrahydro-1H-pyrrolizin-7a(5H)-yl)methoxy)-4-((5-(3-methyl-1H-pyrazol-1-yl)-5-oxopentyl)amino)quinazolin-7-yl)-7-fluorobenzo[b]thiophene-3-carbonitrile] | 381 | 25 | 15 | 25 | 593 | 1170
CCc1cc(O)cc2cccc(-c3c(Cl)cc4c(N5CCCC(C(=O)n6ccc(C)n6)CC5)nc(OC[C@@]56CCCN5C[C@H](F)C6)nc4c3F)c12 (stereo partly drawn) [Example 264, (1-(6-chloro-7-(8-ethyl-6-hydroxynaphthalen-1-yl)-8-fluoro-2-(((2R,7aS)-2-fluorotetrahydro-1H-pyrrolizin-7a(5H)-yl)methoxy)quinazolin-4-yl)azepan-4-yl)(3-methyl-1H-pyrazol-1-yl)methanone] | 138 | 732 | 170 | 232 | 3490 | 847
CN(CCCC(=O)Oc1c(F)cccc1F)c1nc(OC[C@@]23CCCN2C[C@H](F)C3)nc2c(F)c(-c3ccc(F)c4sc(N)c(C#N)c34)c(Cl)cc12 [Example 265, 2,6-difluorophenyl 4-((7-(2-amino-3-cyano-7-fluorobenzo[b]thiophen-4-yl)-6-chloro-8-fluoro-2-(((2R,7aS)-2-fluorotetrahydro-1H-pyrrolizin-7a(5H)-yl)methoxy)quinazolin-4-yl)(methyl)amino)butanoate] | 271 | 35 | 3 | 12 | 844 | 370

Other lines, results leading:

IC50 [1] [nM] | IC50 (KRas WT) [nM] | IC50 (KRas G12C) [nM] | IC50 (KRas G12S) [nM] | IC50 [2] [nM] | IC50 [3] [nM] | Structure (SMILES)
806 | 39 | 48 | 77 | 156 | 391 | N#Cc1c(N)sc2c(F)ccc(-c3c(Cl)cc4c(N5CCN(S(=O)(=O)n6ccnn6)CC5)nc(OC[C@@]56CCCN5C[C@H](F)C6)nc4c3F)c12 [Example 252, 4-(4-(4-((1H-1,2,3-triazol-1-yl)sulfonyl)piperazin-1-yl)-6-chloro-8-fluoro-2-(((2R,7aS)-2-fluorotetrahydro-1H-pyrrolizin-7a(5H)-yl)methoxy)quinazolin-7-yl)-2-amino-7-fluorobenzo[b]thiophene-3-carbonitrile]
14 | 10 | 8 | 8 | 37 | 61 | CC(=O)N(C)C(=O)C1CCN(c2nc(OC[C@@]34CCCN3C[C@H](F)C4)nc3c(F)c(-c4ccc(F)c5sc(N)c(C#N)c45)c(Cl)cc23)CC1 [Example 253, N-acetyl-1-(7-(2-amino-3-cyano-7-fluorobenzo[b]thiophen-4-yl)-6-chloro-8-fluoro-2-(((2R,7aS)-2-fluorotetrahydro-1H-pyrrolizin-7a(5H)-yl)methoxy)quinazolin-4-yl)-N-methylpiperidine-4-carboxamide]
5 | 4 | 3 | 3 | 18 | 29 | CC(=O)N(C)C(=O)C1CCN(c2nc(OC[C@@]34CCCN3C[C@H](F)C4)nc3c(F)c(-c4ccc(F)c5sc(N)c(C#N)c45)c(Cl)cc23)CC1 [Example 254, N-acetyl-1-((S)-7-(2-amino-3-cyano-7-fluorobenzo[b]thiophen-4-yl)-6-chloro-8-fluoro-2-(((2R,7aS)-2-fluorotetrahydro-1H-pyrrolizin-7a(5H)-yl)methoxy)quinazolin-4-yl)-N-methylpiperidine-4-carboxamide]
28 | 14 | 14 | 11 | 41 | 29 | CC(=O)N(C)C(=O)C1CCCN(c2nc(OC[C@@]34CCCN3C[C@H](F)C4)nc3c(F)c(-c4ccc(F)c5sc(N)c(C#N)c45)c(Cl)cc23)CC1 (stereo partly drawn) [Example 255, N-acetyl-1-(7-(2-amino-3-cyano-7-fluorobenzo[b]thiophen-4-yl)-6-chloro-8-fluoro-2-(((2R,7aS)-2-fluorotetrahydro-1H-pyrrolizin-7a(5H)-yl)methoxy)quinazolin-4-yl)-N-methylazepane-4-carboxamide]
29 | 9 | 3 | 4 | 84 | 38 | CC(=O)N(C)C(=O)CCCNc1nc(OC[C@@]23CCCN2C[C@H](F)C3)nc2c(F)c(-c3ccc(F)c4sc(N)c(C#N)c34)c(Cl)cc12 [Example 258, N-acetyl-4-((7-(2-amino-3-cyano-7-fluorobenzo[b]thiophen-4-yl)-6-chloro-8-fluoro-2-(((2R,7aS)-2-fluorotetrahydro-1H-pyrrolizin-7a(5H)-yl)methoxy)quinazolin-4-yl)amino)-N-methylbutanamide]
19 | 8 | 3 | 3 | 125 | 80 | CC(=O)N(C)C(=O)CCCN(C)c1nc(OC[C@@]23CCCN2C[C@H](F)C3)nc2c(F)c(-c3ccc(F)c4sc(N)c(C#N)c34)c(Cl)cc12 [Example 259, N-acetyl-4-((7-(2-amino-3-cyano-7-fluorobenzo[b]thiophen-4-yl)-6-chloro-8-fluoro-2-(((2R,7aS)-2-fluorotetrahydro-1H-pyrrolizin-7a(5H)-yl)methoxy)quinazolin-4-yl)(methyl)amino)-N-methylbutanamide]
495 | 2130 | 1720 | 490 | 8920 | > 10000 | Cc1ccn(C(=O)C2CCCN(c3nc(OC[C@@]45CCCN4C[C@H](F)C5)nc4c(F)c(-c5c(I)ccc(N)c5C#N)c(Cl)cc34)CC2)n1 (stereo partly drawn) [Example 263, 6-amino-2-(6-chloro-8-fluoro-2-(((2R,7aS)-2-fluorotetrahydro-1H-pyrrolizin-7a(5H)-yl)methoxy)-4-(4-(3-methyl-1H-pyrazole-1-carbonyl)azepan-1-yl)quinazolin-7-yl)-3-iodobenzonitrile]

From patent US20260356856A1, “KRAS G12S AND G12C INHIBITORS” (MIRATI THERAPEUTICS, INC., priority 2023, published 2026)
